Laboratory results from patent US8101180B2, “Anti-IGF-IR and/or anti-insulin/IGF-I hybrid receptors antibodies and uses thereof” (Pierre Fabre Medicament, priority 2002, dated 2012).
Entries after “also recorded” stand apart in the source; their conditions may differ.

Assays:
IRS-1 = experiment: Tyrosine phosphorylation of IRS-1 in IGF-I-stimulated MCF7 cells; assay type: cell-based, human; details: antibodies 10 μg/ml, IGF-I 50 ng/ml
Procedure: MCF7 cells are cultured for 24 hours at 5·10^4 cells/cm^2 (75 cm^2 plates, COSTAR) in 20 ml of RPMI without phenol red, mixed with 5 mM of glutamine, penicillin/streptomycin (respectively 100 U/100 μg/ml) and 10% of fetal calf serum. After three washes in PBS, the cells were incubated for 12 hours in medium (RPMI) without phenol red, devoid of fetal calf serum and mixed with 5 mM of glutamine, penicillin/streptomycin, bovine serum albumin at 0.5 μg/ml (Sigma A-8022) and transferrin at 5 μg/ml (Sigma T8158).
For activation, the cells were first incubated at 37° C. for 2 minutes with blocking antibodies (10 μg/ml) and then IGF-I (Sigma I3769, 50 ng/ml) was added for two additional minutes. The reaction was stopped by aspiration of the incubation medium and the plates were laid on ice. […] The solutions were centrifuged at 12,000 rpm for ten minutes (4° C.) and the protein concentrations of the supernatants were quantified by BCA.
500 μg of proteins of the cell lysate were mixed with the anti-IGF-IR (Santa cruz Ref.: sc-713) for immunoprecipitation and incubated on the shaker at 4° C. for 1.5 hours. […] The supernatants were analyzed by electrophoresis on polyacrylamide SDS gel (8% Novex EC6015). […]

[1] = system: A549 cells implanted intrapleurally; experiment: Orthotopic (intrapleural) A549 model, survival; details: 10^6 A549 cells intrapleural; Example 3b: 500 μg/mouse challenge then 250 μg twice per week
Procedure: In order to evaluate our antibody in a model closer to reality, the A549 cells were implanted in an intrapleural location. […] In the study which was carried out, 10^6 A549 cells were injected intrapleurally into female nude mice. 7 days after implantation, the mice were divided into 2 batches of 22.
In order to evaluate the antitumor activity of an antibody mixture directed respectively against IGF-IR and EGFR, 10^6 A549 cells (non-small cell lung cancer) were implanted in the intrapleural cavity of nude mice.
For the combined therapy, antibodies were mixed prior to the injection.
The T/C % are calculated according the following formula, [MEDIAN OF TREATED MICE/MEDIAN OF CONTROL MICE×100].

BxPC3 tumor = experiment: BxPC3 pancreatic cancer xenograft; assay type: in vivo, nude mice; details: 250 μg/dose/mouse twice per week i.p.
Procedure: (§1) In these 4 models, the treatment was carried out twice per week i.p. at a rate of 250 μg/dose/mouse.

MCF-7 tumor = MCF-7 tumor growth in nude mice (subcutaneous xenograft); assay type: in vivo; details: for inhibition of MCF-7 tumor growth in vivo, murine versus humanized antibody: 125 μg/dose twice a week i.p. (Example 36)
Procedure: The in vivo selection was carried out in an established tumor model. In order to do this, nude mice received a subcutaneous implant of slow-release estrogen, indispensable for the taking of the tumor in a murine model. Twenty-four hours after implantation of the estrogens, 5·10^6 MCF-7 cells are grafted onto the right flank of the mouse subcutaneously. Five days after this cell graft, the tumors are measurable and batches of 6 mice are formed at random. The treatment of the mice is carried out twice per week, during 5 to 6 weeks, at the dose of 250 μg/dose/mouse. In the control group, the mice are treated in the same fashion with a murine control isotype. […] Another non exclusive hypothesis could be the recognition by these antibodies of the atypical IGF-IR as described in the paper of Siddle et al., (Siddle et al., 1994, Horn Res. 41(suppl. 2):56-65).
The long-term use of tamoxifen is associated with a significant increase in the risk of endometrial cancer (Fisher et al., J. of National Cancer Institute, 86, 7:527-537, 1994; VIDAL 2000, 1975-1976) and of collateral recurrence of E2-independent cancer of the breast (Li C. I. et al., J. Natl. Cancer Inst., July 4, 93(13):1008-1013, 2001). […] In order to do this, 7·10^6 MCF-7 cells were implanted sc (subcutaneously) in nude mice, 24 hours after implantation in these same mice of a grain of estradiol with prolonged release (0.72 mg/tablet liberated over 60 days), indispensable for the establishment of any E2-dependent human tumor in this animal species. Five days after this implantation, the tumors are measured and groups of 6 mice are formed. […] The tamoxifen is administered daily for 4 weeks except at the weekend. […] A study was previously carried out in order to verify that the solvent alone is without influence on the tumor growth.
To do this, 5·10^6 A549 cells were implanted subcutaneously in nude mice. Five days after this implantation, the tumors were measured and groups of 6 mice were formed. […] In the MCF-7 breast tumor model, a sustained-release oestradiol granule (0.72 mg/tablet released over 60 days) is implanted subcutaneously 24 hours before implantation of the cells. This granule is essential to the establishment of any E2-dependent human tumor in this animal species.

SK-ES-1 tumor = experiment: SK-ES-1 osteosarcoma xenograft; assay type: in vivo, nude mice; details: 250 μg/dose/mouse twice per week i.p.
Procedure: as §1

DU145 tumor = experiment: DU145 androgen-independent prostate tumor xenograft; assay type: in vivo, nude mice; details: 250 μg/dose/mouse twice per week i.p.
Procedure: as §1

A549 cells = experiment: ADCC with human NK cells on A549 cells (51Cr); assay type: cell-based; details: 4 hours, 10 μg antibody per 5·10^5 cells
Procedure: In order to verify this point, NK (Natural Killer) cells coming from the peripheral blood of human donors are placed in the presence of A549 or MCF-7 cells previously incubated for 4 hours with 10 μg of 7H2HM antibody per 5·10^5 cells and labeled with ^51Cr ([…]).

| Substance | inhibition of tyrosine phosphorylation of IRS-1 (IRS-1) | survival of mice orthotopically implanted with A549 cells [1] | antitumor activity in BxPC3 model (BxPC3 tumor) | inhibition of MCF-7 tumor growth in vivo, murine versus humanized antibody (MCF-7 tumor) | inhibition of MCF-7 tumor growth in vivo (MCF-7 tumor; 250 μg/dose/mouse twice per week i.p.) | antitumor activity in SKES-1 osteosarcoma model (SK-ES-1 tumor) | antitumor activity in DU145 model (DU145 tumor) | inhibition of MCF-7 tumor growth in vivo, murine versus humanized antibody (MCF-7 tumor; listed as 7H2HM) | ADCC on A549 cells (A549 cells) |
| --- | --- | --- | --- | --- | --- | --- | --- | --- | --- |
| 7C10: murine monoclonal anti-IGF-IR IgG1 secreted by the hybridoma deposited at the CNCM under the number I-2717 | inhibit the phosphorylation | significant extension of survival; also recorded: comparable and a significant gain in survival | significant activity | significant inhibition of tumor growth | very significant inhibition of the tumor growth; also recorded: significantly inhibiting the growth; also recorded: significantly more efficacious than tamoxifen | significant activity | significant activity | – | – |
| h7C10: humanized 7C10 anti-IGF-IR antibody, isotype IgG1 (humanized 1 written 7H2HM) | inhibit the phosphorylation | – | – | exactly the same intensity as that observed with its murine counterpart | – | – | – | perfectly comparable with the murine antibody 7C10 | capable of inducing an ADCC |
